In patent publication US7884083B2, “Immunomodulatory compositions, methods of making, and methods of use thereof” (Dynavax Technologies Corporation, priority 2002, dated 2011):

Experiments:
[1] = tested on: human peripheral blood lymphocytes (PBMCs); assay: hPBMC assay: IFN-γ and IFN-α production by human PBMCs (ELISA); type: cell-based
[2] = tested on: plasmacytoind dendritic cells (PDCs) of human PBMCs; assay: Intracellular staining and FACS analysis of IFN-α production from PDCs; type: cell-based; conditions: double-staining cells as percentage of total PBMCs, 20 μg/mL oligonucleotide, 100 μg/mL PMXB, six hours
Description: Intracellular staining assays and FACS analysis were used to examine IFN-α production from the plasmacytoind dendritic cells (PDCs) of human PBMCs. […] For these assays, the IMC or -ISS and the polymyxin were added separately to the PBMC cell culture which contained human serum albumin. […] After the six hours, the cells were stained with a fluorescently labeled PDC marker, anti-BCDA-2 labeled with FITC, and with anti-IFN-α labeled with PE. FACS analysis of the labeled cells was performed.

[3] = Donor # 87, 20 μg/ml oligonucleotide, 100 μg/ml PMXB, 24 hours
[4] = Donor # 88, 20 μg/ml oligonucleotide, 100 μg/ml PMXB, 24 hours
[5] = Donor # 89, 20 μg/ml oligonucleotide, 100 μg/ml PMXB, 24 hours
[6] = Donor # 90, 20 μg/ml oligonucleotide, 100 μg/ml PMXB, 24 hours
[7] = Donor # 91, 20 μg/ml oligonucleotide, 100 μg/ml PMXB, 24 hours
[8] = Donor # 94, 20 μg/ml oligonucleotide, 100 μg/ml PMXB, 24 hours
[9] = Donor # 95, 20 μg/ml oligonucleotide, 100 μg/ml PMXB, 24 hours
[10] = Mean (Table 4), Controls, 20 μg/ml oligonucleotide, 100 μg/ml polymyxin
[11] = Mean (Table 5), no Time given, 20 μg/ml oligonucleotide
[12] = Mean (Table 6), no Time given, 20 μg/ml oligonucleotide, 100 μg/ml polymyxin
[13] = Mean of donors (Table 2), 20 μg/ml oligonucleotide, 100 μg/ml PMXB, 24 hours
[14] = Table 3, Donor 1, PMXB 100 μg/ml, AMTB 10 μg/ml, serum containing medium
[15] = Table 3, Donor 2, PMXB 100 μg/ml, AMTB 10 μg/ml, serum containing medium
[16] = Table 3, Mean, PMXB 100 μg/ml, AMTB 10 μg/ml, serum containing medium
[17] = Table 9, Mean, 20 μg/ml oligonucleotide, 100 μg/ml polymyxin
[18] = Table 9, donor 149, 20 μg/ml oligonucleotide, 100 μg/ml polymyxin
[19] = Table 9, donor 208, 20 μg/ml oligonucleotide, 100 μg/ml polymyxin
[20] = Table 10, donor 1, 20 μg/ml oligonucleotide, 100 μg/ml polymyxin derivative added separately, 24 hours
[21] = Table 10, donor 2, 20 μg/ml oligonucleotide, 100 μg/ml polymyxin derivative added separately, 24 hours
[22] = Table 10, donor 3, 20 μg/ml oligonucleotide, 100 μg/ml polymyxin derivative added separately, 24 hours
[23] = Table 10, donor 4, 20 μg/ml oligonucleotide, 100 μg/ml polymyxin derivative added separately, 24 hours
[24] = Table 10, donor 5, 20 μg/ml oligonucleotide, 100 μg/ml polymyxin derivative added separately, 24 hours
[25] = Table 10, donor 6, 20 μg/ml oligonucleotide, 100 μg/ml polymyxin derivative added separately, 24 hours
[26] = Table 10, mean of 6 donors, 20 μg/ml oligonucleotide, 100 μg/ml polymyxin derivative added separately, 24 hours

## 5′-TGACTGTGAACGTTCGAGATGA-3′ [+ISS]
[1]; Donor # 86, 20 μg/ml oligonucleotide, 100 μg/ml PMXB, 24 hours
  IFN-γ: 182 pg/mL
[1]; [3]
  IFN-α: 212 pg/mL
  IFN-γ: 341 pg/mL
[1]; [4]
  IFN-α: 264 pg/mL
  IFN-γ: 367 pg/mL
[1]; [5]
  IFN-α: 207 pg/mL
  IFN-γ: 100 pg/mL
[1]; [6]
  IFN-α: 119 pg/mL
  IFN-γ: 13 pg/mL
[1]; [7]
  IFN-α: 0 pg/mL
  IFN-γ: 27 pg/mL
[1]; [8]
  IFN-α: 274 pg/mL
  IFN-γ: 30 pg/mL
[1]; [9]
  IFN-α: 26 pg/mL
  IFN-γ: 6 pg/mL
[1]; Donor # 96, 20 μg/ml oligonucleotide, 100 μg/ml PMXB, 24 hours
  IFN-γ: 49 pg/mL
[1]; Donor # 97, 20 μg/ml oligonucleotide, 100 μg/ml PMXB, 24 hours
  IFN-γ: 23 pg/mL
[1]; [10]
  IFN-α: 122 pg/mL
  IFN-γ: 11 pg/mL
[1]; [11]
  IFN-α: 250 pg/mL
  IFN-γ: 88 pg/mL
[1]; [12]
  IFN-Υ: 148 pg/mL
  IFN-α: 56 pg/mL
[1]; [13]
  IFN-α: 166 pg/mL
  IFN-γ: 106 pg/mL
[1]; [14]
  IFN-α: 11 pg/mL
  IFN-γ: 29 pg/mL
[1]; [15]
  IFN-α: 2 pg/mL
  IFN-γ: 0 pg/mL
[1]; [16]
  IFN-α: 6 pg/mL
  IFN-γ: 15 pg/mL
[1]; [17]
  IFN-Υ: 76 pg/mL
  IFN-α: 41 pg/mL
[1]; [18]
  IFN-Υ: 78 pg/mL
  IFN-α: 59 pg/mL
[1]; Table 9, donor 206, 20 μg/ml oligonucleotide, 100 μg/ml polymyxin
  IFN-Υ: 5 pg/mL
[1]; [19]
  IFN-Υ: 146 pg/mL
  IFN-α: 32 pg/mL
[1]; Table 9, donor 209, 20 μg/ml oligonucleotide, 100 μg/ml polymyxin
  IFN-α: 32 pg/mL
[1]; [20]
  IFN-α: 263 pg/mL
  IFN-γ: 13 pg/mL
[1]; [21]
  IFN-α: 225 pg/mL
  IFN-γ: 3 pg/mL
[1]; [22]
  IFN-α: 52 pg/mL
  IFN-γ: 2 pg/mL
[1]; [23]
  IFN-α: 52 pg/mL
  IFN-γ: 2 pg/mL
[1]; [24]
  IFN-α: 218 pg/mL
  IFN-γ: 99 pg/mL
[1]; [25]
  IFN-α: 26 pg/mL
  IFN-γ: 14 pg/mL
[1]; [26]
  IFN-α: 139 pg/mL
  IFN-γ: 22 pg/mL
[2]; donor 1
  BCDA-2/IFN-α d.p. %: 0.01%
[2]; donor 2
  BCDA-2/IFN-α d.p. %: 0.03%
[2]; mean
  BCDA-2/IFN-α d.p. %: 0.02%
